Assay results reported in patent US6673840B1, “Use of lipoxygenase metabolite of arachidonic acid and its derivatives in capsaicin-channel agonist” (priority 1998, dated 2004).
Entries after “also recorded” stand apart in the source; their conditions may differ.

Key:
[1] = biological target: T1, CAP channel (Rattus norvegicus, UniProt O35433); experiment: single channel current recording with patch clamp technique, inside-out membrane patches of cultured sensory neurons; format: cell-based; conditions: for Hill coefficient: concentration-response curve of channel activation; for amplitude of the single channel currents: membrane potential of 60 mV; for relative agonistic potency (Po as percentage of Po at 0.5 μM CAP): metabolites at 10~20 μM; for generation of single channel currents (activation of CAP channel): applied to intracellular side of membrane patch, CAP 0.5 μM, 12-HPETE 2 μM
T1 construct: administered at an amount of 10˜20 μM to the membrane patches of cultured sensory neurons; endogenous in cells; host or cells: cultured sensory neurons (inside-out membrane patches)
Method: In the present invention, use was made of a single channel recording method with the aid of a patch clamp technique (Hamill et al., Pfl gers Arch 391:85-100, 1981) in order to know whether lipoxygenase metabolites activate CAP channels or receptors or not. […] Because the tests are performed in isolated membrane patches without the mediation of intracellular second messengers, lipoxygenase metabolites are believed to exert a direct action on the CAP channel.
An examination was made on the efficiency with which the various lipoxygenase metabolites activate CAP channels. To this end, a patch clamp technique was used to record the single channel current generated in the CAP channel to which various lipoxygenase metabolites were applied to measure the open probability (Po) of the CAP channel. To compare the relative potency of each metabolite, the effects of the lipoxygenase metabolites on CAP channels were measured with a reference to 0.5 μM CAP.
A single channel current recording method using a patch clamp technique (Hamill et al., supra; Oh et al., 1996a) was used to know whether the lipoxygenase metabolites directly activate the CAP channel.
Because the binding site of CAP was located on the intracellular side of the channel (Oh et al., 1996b), the metabolites were applied to the intracellular sides of cell membrane patches.
In order to compare the agonistic potencies of the various metabolites synthesized by the action of various lipoxygenases, one patch was administered with 0.5 μM of CAP and then, with various lipoxygenase metabolites. At each experiment, the open probabilities (Po) of the channel attributable to the metabolites were recorded and calculated as a percentage to the open probability obtained at 0.5 μM CAP.
All of the lipoxygenase metabolites tested were administered at an amount of 10˜20 μM to the membrane patches of cultured sensory neurons. The relative potency of the metabolites in activating the channel was depicted in FIG. 7. As apparent from this histogram, almost all of the lipoxygenase metabolites, if different in agonistic potency, activate the CAP channel.
12-HPETE was administered at various concentrations from 0.25 to 20 μM to the cell membrane patches of sensory nerve cells, in order to plot a concentration-response curve. As a result, FIG. 8a was obtained. […] Returning now to FIG. 8a, the channel activation currents obtained at each 12-HPETE concentration were calculated as relative degrees to the channel activation current obtained at 20 μM of 12-HEPETE. The relative channel degrees were plotted against the concentrations of […] 12-HPETE and the resulting plot followed the Hill equation.

[2] = test system: sensory nerve fibers (c-fibers) of the skin; experiment: skin-nerve preparation, action potentials of cutaneous pain nerve c-fibers; set-up: species or system rats
Method: To recognize whether the excitation of BK on nerve cells is accomplished via the arachidonic acid-lipoxygenase-CAP pathway, in vivo, a measurement was made on the action potentials in the sensory nerve fibers of the rats, as shown in FIGS. 13a and 13b. particularly, pain nerves which exist in the skin were isolated, together with a overlapping area of the skin, and the action potentials were measured from the nerve filaments using skin-nerve preparation (Reeh, 1998; Steen et al., 1992, 1995) as schematically illustrated in FIG. 13a. While unit action potentials measured at the sensory nerve fibers isolated from the skin, frequencies of the action potentials induced by the administration of BK were recorded. An increase in frequency of the action potentials means excitation of the sensory nerves.
The transmission speed of nerve signals were measured and only c-fibers (non-myelinated sensory nerve fibers) were used in the BK response experiment. The reason why c-fibers are used only is that they consist mainly of pain nerve cells (Willis and Coggeshall, 1991; Yaksh, 1986).
With reference to FIG. 13b, there are illustrated the action potential behaviors of the cutaneous pain nerve in response to agonist and antagonist samples. […] In order to recognize whether the nerve excitation of BK was attributed to the opening of CAP channels, CZP was administered at a dose of 10 μM, together with BK, to the skin. […] An experiment in which BK was administered alone or in combination with CZP to the skin, was repeated 20 times with the aim of testing the influence which BK and a combination of BK and CZP had on the activation of nerve cells, and the results are summarized as shown in FIG. 13c.
When the sensory nerve fibers were excited in response to BK, inhibitors against the enzymes required for the arachidonic acid-lipoxygenase-CAP receptor pathway were used in order to identify whether the response passed through the pathway. In the histogram of FIG. 14, the bar length of each inhibitor represents % activation relative to the activation effect obtained when BK was used alone in absence of any inhibitor. For example, CZP, if added along with BK, suppressed the activation response to BK by approximately […].

[3] = test system: cultured sensory nerve cells; experiment: whole-cell currents in cultured sensory nerve cells in response to BK; format: cell-based; conditions: CZP 10 μM; 5 μM of BK
Text: When taking various experimental results previously obtained into account, it was inferred that BK has a possibility to open CAP channels through the arachidonic acid-lipoxygenase pathway. To confirm this inference, an examination was made regarding whether the currents generated in cultured sensory nerve sells in response to BK were diminished by CZP or other lipoxygenase inhibitors. If BK made CAP channel open via the arachidonic acid-lipoxygenase pathway, the current response to BK must be reduced by CZP. However, rarely did the cultured cells respond to BK.

[4] = biological target: T1, CAP channel; experiment: single channel current recording with patch clamp technique, inside-out membrane patches of cultured sensory neurons; format: cell-based

T1 sequence (O35433 whole entry): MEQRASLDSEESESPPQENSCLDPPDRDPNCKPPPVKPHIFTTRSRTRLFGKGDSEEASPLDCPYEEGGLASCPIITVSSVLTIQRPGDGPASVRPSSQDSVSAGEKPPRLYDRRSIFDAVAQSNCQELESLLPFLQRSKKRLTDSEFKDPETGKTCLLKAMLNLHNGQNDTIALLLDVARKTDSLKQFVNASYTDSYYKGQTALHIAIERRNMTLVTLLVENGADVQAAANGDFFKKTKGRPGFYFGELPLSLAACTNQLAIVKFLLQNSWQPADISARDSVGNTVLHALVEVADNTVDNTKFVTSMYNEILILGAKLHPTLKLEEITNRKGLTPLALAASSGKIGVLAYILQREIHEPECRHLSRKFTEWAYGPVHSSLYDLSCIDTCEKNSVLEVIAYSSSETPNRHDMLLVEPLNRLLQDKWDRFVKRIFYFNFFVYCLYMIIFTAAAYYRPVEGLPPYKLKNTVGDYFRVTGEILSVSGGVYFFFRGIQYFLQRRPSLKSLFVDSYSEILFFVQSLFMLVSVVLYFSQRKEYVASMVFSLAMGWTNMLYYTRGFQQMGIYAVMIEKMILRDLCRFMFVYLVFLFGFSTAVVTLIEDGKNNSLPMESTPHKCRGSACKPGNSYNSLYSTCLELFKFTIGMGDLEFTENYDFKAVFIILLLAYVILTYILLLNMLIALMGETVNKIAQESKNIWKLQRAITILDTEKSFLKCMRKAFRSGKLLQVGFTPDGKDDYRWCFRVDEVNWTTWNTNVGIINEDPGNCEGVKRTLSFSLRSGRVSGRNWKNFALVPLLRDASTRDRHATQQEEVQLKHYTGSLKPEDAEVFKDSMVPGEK

Compound: CCCCC/C=C\CC(/C=C/C=C\C/C=C\CCCC(=O)O)OO (centres unmarked) [12-HPETE, 12-hydroperoxyeicosatetraenoic acid]
- patches in which activation of CAP channels was detected ([1]; 12-HPETE 2-20 μM, of the 97 patch samples tested): 88 patches
- Po channel open probability ([1]; 12-HPETE alone, increased from 0.0, n=4): 0.019±0.0002
- reversal potential ([1]; bi-ionic system 140 mM Na+ / 140 mM K+, 2~10 μM 12-HPETE): −1.71±0.49 mV
- permeability ratio of K+/Na+ (PK/PNa) ([1]; calculated from bi-ionic system experiment): 1.1
- Hill coefficient [1]: 2.4
- amplitude of the single channel currents [1]: 2.68±0.012 pA
- relative agonistic potency (Po as percentage of Po at 0.5 μM CAP) [1]: most potent endogenous agonist; also recorded: highest agonistic potency

Compound: CCN(CC)CCCC(C)Nc1c2ccc(Cl)cc2nc2ccc(OC)cc12 (centres unmarked) [QN, Quinacrine]
- suppressive effect on the activation response to BK ([2]; relative to BK alone): 70%

Compound: CCCCC[C@H](O)/C=C/[C@H]1[C@H](O)CC(=O)[C@@H]1C/C=C\CCCC(=O)O [PGE2, prostaglandin E2]
- generation of single channel currents (activation of CAP channel) [1]: no channel currents were generated

Compound: Oc1cc2c(cc1O)CN(C(=S)NCCc1ccc(Cl)cc1)CCC2 [CZP, capsazepine]
- effect on single channel currents activated by 12-HPETE ([1]; 10 μM of CZP present): single channel currents were not observed
- Po channel open probability ([1]; co-existence of 10 μM of CZP and 10 μM of 12-HPETE): 0.001±0.000002
- effect on current generated by BK [3]: reduced the current
- effect on response of skin nerve to BK ([2]; CZP 10 μM together with BK): Great suppression

Compound: CCCCC[C@H](O)/C=C/[C@@H]1[C@H]2C/C(=C/CCCC(=O)O)O[C@H]2C[C@H]1O [PGI2]
- generation of single channel currents (activation of CAP channel) [1]: no channel currents were generated

Compound: COc1ccc2c(c1)c(CC(=O)O)c(C)n2C(=O)c1ccc(Cl)cc1 [INDO, indomethacin]
- effect on the BK response ([2]; 2 μM indomethacin): failed to inhibit the BK response

Compound: CCCCC/C=C\C/C=C\C/C=C\C/C=C\CCCC(=O)O [arachidonic acid]
- experiments in which channel currents were weakly induced ([4]; arachidonic acid 10 to 50 μM): 54%
- experiments in which the CAP channels were not activated ([4]; arachidonic acid 10 to 50 μM): approximately 46%
- trials in which the CAP channels were not activated ([4]; arachidonic acid 10 to 50 μM, of 69 trials): 32 trials

Compound: CCCCC/C=C\C[C@@H](O)/C=C/C=C/C=C\[C@@H](O)CCCC(=O)O [leukotriene B4]
- relative agonistic potency (Po as percentage of Po at 0.5 μM CAP) [1]: poor in the activation potency

Compound: CC(Cc1ccc(O)c(O)c1)C(C)Cc1ccc(O)c(O)c1 (centres unmarked) [NDGA, nordihydroguaiaretic acid]
- lowering of the activation of BK ([2]; 50 μM of NDGA, relative to BK alone): 70%
- effect on single channel current generated by arachidonic acid ([4]; NDGA administered together with arachidonic acid): reversibly controlled depending on the presence or absence of NDGA

Compound: CCCCC[C@H](O)/C=C/[C@H]1C(=O)C[C@H](O)[C@@H]1C/C=C\CCCC(=O)O [PGD2]
- generation of single channel currents (activation of CAP channel) [1]: no channel currents were generated

Compound: COc1cc(CNC(=O)CCCC/C=C/C(C)C)ccc1O [CAP, capsaicin]
- generation of single channel currents (activation of CAP channel) [1]: single channel current which was greatly generated
- Hill coefficient [1]: 2.4
- amplitude of the single channel currents [1]: 2.72±0.06 pA
- action potentials of the nerve fibers (excitation) ([2]; administered to skin patch, BK 1 μM): largely increased action potentials
